Measured values reported in patent US20230212152A1, “INHIBITORS OF CYSTEINE PROTEASES AND METHODS OF USE THEREOF” (priority 2020, published 2023).
pEC50, pIC50: −log10 of the molar value. Like-named read-outs stand apart in the source and are kept apart here.

Tests used:
[1] = target: SARS-CoV2 Mpro (Severe acute respiratory syndrome coronavirus 2, UniProt P0DTD1); assay: SARS-CoV2 Mpro enzymatic assay; format: biochemical; settings: 25 nM Mpro, 25 μM substrate
[2] = target: T1, 229E Mpro (Human coronavirus 229E, UniProt P0C6X1); assay: 229E Mpro assay (Table 3); format: biochemical, HCoV 229E
T1 construct: 229E Mpro
T1 sequence (P0C6X1 2966-3267): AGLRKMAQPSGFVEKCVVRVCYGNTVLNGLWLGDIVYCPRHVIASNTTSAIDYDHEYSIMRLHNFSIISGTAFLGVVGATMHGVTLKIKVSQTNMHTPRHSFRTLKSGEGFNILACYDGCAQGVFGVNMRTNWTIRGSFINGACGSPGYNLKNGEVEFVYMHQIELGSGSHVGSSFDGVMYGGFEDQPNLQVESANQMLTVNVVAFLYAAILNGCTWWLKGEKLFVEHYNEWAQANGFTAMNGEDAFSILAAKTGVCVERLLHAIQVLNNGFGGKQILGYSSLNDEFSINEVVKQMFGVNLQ
Method: Compounds are assayed using standard methods to assess compound activity and IC50. […] The assay buffer contains 20 mM of Tris-HCl (pH 7.3), 100 mM of NaCl, 1 mM of EDTA, 5 mM of TCEP and 0.1% BSA.

Structure (SMILES) | pIC50 [1] | pEC50 ([2]; 229E Mpro EC50) | pEC50 ([2]; read-out: 229E Mpro EC50)
CC1(C)C[C@@H](C[C@@H](C#N)NC(=O)[C@@H]2[C@@H]3[C@H](CN2C(=O)[C@@H](NC(=O)C(F)(F)F)C(C)(C)C)C3(C)C)C(=O)N1 [Compound 3075, (1R,2S,5S)-N-((S)-1-cyano-2-((R)-5,5-dimethyl-2-oxopyrrolidin-3-yl)ethyl)-3-((S)-3,3-dimethyl-2-(2,2,2-trifluoroacetamido)butanoyl)-6,6-dimethyl-3-azabicyclo[3.1.0]hexane-2-carboxamide] | > 5.70 | 4.52 to 5.00 | 
CC(C)(C)C[C@H](NC(=O)[C@@H](NC(=O)C(F)(F)F)C(C)(C)C)C(=O)N[C@H](C#N)C[C@@H]1CC2(CC2)NC1=O [Compound 3037] | > 5.70 | > 5.70 | 
CC(C)(C)[C@H](NC(=O)C(F)(F)F)C(=O)N1CC2(CCC2)CC1C(=O)N[C@H](C#N)C[C@@H]1CC2(CC2)NC1=O (stereo partly drawn) [Compound 3039b] | > 5.70 | > 5.70 | 
CC1(C)C[C@@H](C[C@@H](C#N)NC(=O)C2CC3(CCC3)CN2C(=O)[C@@H](NC(=O)C(F)(F)F)C(C)(C)C)C(=O)N1 (single isomer, unassigned) [3071a (Isomer 1)] | > 5.70 | 5.00 to 5.70 | 
CC1(C)C[C@@H](C[C@@H](C#N)NC(=O)[C@H](CC2CC2)NC(=O)[C@@H](NC(=O)C(F)(F)F)C(C)(C)C)C(=O)N1 [Compound 3065, (S)-N-((S)-1-(((S)-1-cyano-2-((R)-5,5-dimethyl-2-oxopyrrolidin-3-yl)ethyl)amino)-3-cyclopropyl-1-oxopropan-2-yl)-3,3-dimethyl-2-(2,2,2-trifluoroacetamido)butanamide] | > 5.70 | < 4.52 | 
COc1cccc2[nH]c(C(=O)N3CC4(CCCCC4)CC3C(=O)N[C@H](C#N)C[C@@H]3CCCNC3=O)cc12 (single isomer, unassigned) [603a (Isomer 2)] |  |  | < 4.52
CC(C)(C)C[C@H](NC(=O)[C@@H](NC(=O)C(F)(F)F)C(C)(C)C)C(=O)N[C@H](C#N)C[C@@H]1CCCNC1=O [Compound 3129, (S)-N-((S)-1-cyano-2-((S)-2-oxopiperidin-3-yl)ethyl)-2-((S)-3,3-dimethyl-2-(2,2,2-trifluoroacetamido)butanamido)-4,4-dimethylpentanamide] | > 5.70 | > 5.70 | 
COc1cccc2[nH]c(C(=O)N[C@@H](CC3CC3)C(=O)N[C@H](C#N)C[C@@H]3CCCNC3=O)cc12 (single isomer, unassigned) [271A (Isomer 1)] |  |  | < 4.52
COc1cccc2[nH]c(C(=O)N[C@H](CC3CC3)C(=O)N[C@H](C#N)C[C@@H]3CCCNC3=O)cc12 (single isomer, unassigned; isomer 2) [491A (Isomer 2)] |  |  | > 5.70
CC1(C)C[C@@H](C[C@@H](C#N)NC(=O)C2CC3(CCC3)CN2C(=O)[C@@H](NC(=O)C(F)(F)F)C(C)(C)C)C(=O)N1 (single isomer, unassigned) [3071a (Isomer 2)] | < 4.52 | < 4.52 | 
CC1(C)C[C@@H](C[C@@H](C#N)NC(=O)[C@@H]2[C@@H]3[C@H](CN2C(=O)[C@@H](NC(=O)C(F)(F)F)C(C)(C)C)C3(C)C)C(=O)N1 (single isomer, unassigned) [3075 (Isomer 2)] | > 5.70 | 4.52 to 5.00 | 
COc1cccc2[nH]c(C(=O)N3C[C@H](C4CCCCC4)C[C@H]3C(=O)N[C@H](C#N)C[C@@H]3CCNC3=O)cc12 [Compound 167, (2S,4S)-N-((S)-1-cyano-2-((S)-2-oxopyrrolidin-3-yl)ethyl)-4-cyclohexyl-1-(4-methoxy-1H-indole-2-carbonyl)pyrrolidine-2-carboxamide] |  |  | 5.00 to 5.70
Cc1ccn([C@H](CC2CC2)C(=O)N[C@H](C#N)C[C@@H]2CCNC2=O)c(=O)c1NCC(F)(F)F (single isomer, unassigned) [451 (Isomer 1)] |  |  | < 4.52
CC(C)(C)[C@H](NC(=O)C(F)(F)F)C(=O)N1CC2(CCCCC2)C[C@H]1C(=O)N[C@H](C#N)C[C@@H]1CC2(CC2)NC1=O [Compound 3041] | > 5.70 | > 5.70 | 
CC(C)(C)[C@H](NC(=O)C(F)(F)F)C(=O)N1CC2(CCC2)CC1C(=O)N[C@H](C#N)C[C@@H]1CC2(CC2)NC1=O (single isomer, unassigned) [3039a (Isomer 1)] | > 5.70 | 5.00 to 5.70 | 
CC(C)(C)C[C@H](NC(=O)[C@@H](NC(=O)C(F)(F)F)C(C)(C)C)C(=O)N[C@H](C#N)C[C@@H]1CC(C)(C)NC1=O [Compound 3069, (S)-N-((S)-1-cyano-2-((R)-5,5-dimethyl-2-oxopyrrolidin-3-yl)ethyl)-2-((S)-3,3-dimethyl-2-(2,2,2-trifluoroacetamido)butanamido)-4,4-dimethylpentanamide] | > 5.70 | < 4.52 | 
CC(C)(C)[C@H](NC(=O)C(F)(F)F)C(=O)N1C[Si](C)(C)C[C@H]1C(=O)N[C@H](C#N)C[C@@H]1CC2(CC2)NC1=O [Compound 3135] | > 5.70 |  | > 5.70

Structure (SMILES) | pIC50 [1] | pEC50 ([2]; 229E Mpro EC50) | pEC50 ([2]; read-out: 229E Mpro EC50)
Cc1ccn(C(CC2CC2)C(=O)N[C@H](C#N)C[C@@H]2CCNC2=O)c(=O)c1NCC(F)(F)F (single isomer, unassigned) [451 (Isomer 2)] |  | 4.52 to 5.00 | 
CC1(C)CC(C[C@@H](C#N)NC(=O)[C@H](CC2CC2)NC(=O)c2cc3cccc(Cl)c3[nH]2)C(=O)N1 (single isomer, unassigned) [1053 (Isomer 2)] |  |  | 4.52 to 5.00
N#C[C@H](C[C@@H]1CCNC1=O)NC(=O)[C@@H]1CCc2ccc(NCC(=O)O)c(=O)n21 [Compound 501, 2-[[(3S)-3-[[(1S)-1-cyano-2-[(3S)-2-oxopyrrolidin-3-yl]ethyl]carbamoyl]-5-oxo-2,3-dihydro-1H-indolizin-6-yl]amino]acetic acid] |  |  | < 4.52
CN(C(=O)[C@@H](NC(=O)C(F)(F)F)C(C)(C)C)[C@@H](CC1CC1)C(=O)N[C@H](C#N)C[C@@H]1CCCNC1=O [Compound 3131] | > 5.70 | 4.52 to 5.00 | 
COc1cc(Cl)c2[nH]c(C(=O)N3CC4(CCCCC4)CC3C(=O)N[C@H](C#N)C[C@@H]3CCNC3=O)cc2c1 (single isomer, unassigned) [896 (Isomer 2)] | < 4.52 |  | < 4.52
CC1(C)C[C@@H](C[C@@H](C#N)NC(=O)[C@@H]2[C@@H]3[C@H](CN2C(=O)[C@@H](NC(=O)C(F)(F)F)C(C)(C)C)C3(C)C)C(=O)N1 (single isomer, unassigned) [3075 (Isomer 1)] | > 5.70 | < 4.52 | 
Cc1ccn([C@H](CC2CC2)C(=O)N[C@H](C#N)C[C@@H]2CCNC2=O)c(=O)c1NC(=O)OC(C)(C)C (single isomer, unassigned) [591 (Isomer 1)] |  |  | < 4.52
N#CC(CC1CCNC1=O)NC(=O)C1CCc2ccc(NCC(=O)Oc3ccccc3)c(=O)n21 (single isomer, unassigned) [483 (Isomer 2)] |  | < 4.52 | 
COc1cc(Cl)c2[nH]c(C(=O)N3CC4(CCCCC4)CC3C(=O)N[C@H](C#N)C[C@@H]3CCNC3=O)cc2c1 (single isomer, unassigned) [896 (Isomer 1)] | > 5.70 |  | > 5.70
N#C[C@H](C[C@@H]1CCNC1=O)NC(=O)[C@@H]1CS[C@H]2CC[C@H](NCC(F)(F)F)C(=O)N21 [Compound 455, (3R,6S,8aS)-N-[(1S)-1-cyano-2-[(3S)-2-oxopyrrolidin-3-yl]ethyl]-5-oxo-6-(2,2,2-trifluoroethylamino)-2,3,6,7,8,8a-hexahydrothiazolo[3,2-a]pyridine-3-carboxamide] |  |  | < 4.52
COc1cccc2[nH]c(C(=O)N3CC4(CCC4)CC3C(=O)N[C@H](C#N)C[C@@H]3CCNC3=O)cc12 (single isomer, unassigned) [399A (Isomer 2)] |  |  | 4.52 to 5.00
CC(C)(C)[C@H](NC(=O)C(F)(F)F)C(=O)N[C@@H](CC1CC1(F)F)C(=O)N[C@H](C#N)C[C@@H]1CC2(CC2)NC1=O (stereo partly drawn) [Compound 3045] | > 5.70 | > 5.70 | 
CC(C)(C)[C@H](NC(=O)C(F)(F)F)C(=O)N1C[C@H]2[C@@H]([C@H]1C(=O)N[C@H](C#N)C[C@@H]1CCCNC1=O)C2(C)C [Compound 3133, (1R,2S,5S)-N-[(1S)-1-cyano-2-[(3S)-2-oxo-3-piperidyl]ethyl]-3-[(2S)-3,3-dimethyl-2-[(2,2,2-trifluoroacetyl)amino]butanoyl]-6,6-dimethyl-3-azabicyclo[3.1.0]hexane-2-carboxamide] | > 5.70 | > 5.70 | 
COc1cccc2[nH]c(C(=O)N[C@@H](CC3CC3)C(=O)N[C@H](C#N)C[C@@H]3CCCNC3=O)cc12 (single isomer, unassigned) [491A (Isomer 1)] |  | < 4.52 | 
COc1cccc2[nH]c(C(=O)N3C[C@H]4CC[C@H]4[C@@H]3C(=O)N[C@H](C#N)C[C@@H]3CCNC3=O)cc12 (single isomer, unassigned) [547 (Isomer 2)] |  |  | > 5.70
CC(C)(C)[C@H](NC(=O)C(F)(F)F)C(=O)N1C[C@H]2[C@@H]([C@H]1C(=O)N[C@H](C#N)C[C@@H]1CC3(CC3)NC1=O)C2(C)C [Compound 3043] | > 5.70 | > 5.70 | 
CC1(C)C[C@@H](C[C@@H](C#N)NC(=O)[C@@H]2CC3(CCCCC3)CN2C(=O)[C@@H](NC(=O)C(F)(F)F)C(C)(C)C)C(=O)N1 [Compound 3073, (3S)-N-[(1S)-1-cyano-2-[(3R)-5,5-dimethyl-2-oxo-pyrrolidin-3-yl]ethyl]-2-[(2S)-3,3-dimethyl-2-[(2,2,2-trifluoroacetyl)amino]butanoyl]-2-azaspiro[4.5]decane-3-carboxamide] | > 5.70 | 5.00 to 5.70 | 
